Measurements: US20190382454A1, “A MODIFIED PEPTIDE AS AN ANTICANCER AGENT” (Amrita Therapeutics Limited, priority 2015, published 2019)
Entries after “also recorded” stand apart in the source; their conditions may differ. Ends that are not written are not given here.

What was measured:
[1] = tested on: SMAR1; test: Peptide interaction assay by ITC, SMAR1; type: binding; conditions: 25° C.
[2] = tested on: SMAR1; test: PCR of SMAR1 mRNA in HCT116p53+/+ cells; conditions: 48 hours
[3] = biological target: T1, SMAR1 (Homo sapiens, UniProt Q8N9N5); test: SMAR1 induction in HCT116p53-/- cells; type: cell-based
T1 construct: HCT116 cells treated with different available peptides for 48 hours stabilized SMAR1 expression; endogenous in cells; host or cells: HCT116 p53+/+, HCT116 p53-/-, MCF7, SW620, NCI-H522, MDA-MB231
T1 sequence (Q8N9N5 1-519): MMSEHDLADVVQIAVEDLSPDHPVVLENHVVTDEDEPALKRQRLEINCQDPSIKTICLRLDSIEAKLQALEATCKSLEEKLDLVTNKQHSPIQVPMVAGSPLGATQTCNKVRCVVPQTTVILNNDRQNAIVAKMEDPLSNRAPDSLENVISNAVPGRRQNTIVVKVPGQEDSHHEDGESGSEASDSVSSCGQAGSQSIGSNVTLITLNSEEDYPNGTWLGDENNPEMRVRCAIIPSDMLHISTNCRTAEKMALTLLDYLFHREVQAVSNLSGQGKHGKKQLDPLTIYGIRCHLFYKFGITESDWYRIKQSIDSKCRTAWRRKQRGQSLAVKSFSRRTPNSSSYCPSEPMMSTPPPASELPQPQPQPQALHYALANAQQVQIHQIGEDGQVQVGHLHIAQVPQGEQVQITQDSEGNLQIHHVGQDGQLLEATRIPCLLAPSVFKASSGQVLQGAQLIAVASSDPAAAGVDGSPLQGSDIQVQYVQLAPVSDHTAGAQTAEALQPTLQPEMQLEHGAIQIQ

[4] = tested on: MDA-MB231 breast cancer cells; test: Wound healing / cell migration assay; type: cell-based, Human; conditions: MDA-MB231, 10 μg peptide, recorded up to 16 hours, vs DMSO control
Procedure: MDA-MB231 breast cancer cells (1×10^^6) were seeded in a 6 well plate and maintained in L15 DMEM medium supplemented with 10% FBS and 100 Units of Penicillin Streptomycin antibiotics for 24 hours. Cells were treated for 24 hours with AT-01C and AT-01D peptides of 10 μg each. Post 24 hours wound was created and washed with medium to remove the cells detached during wound creation. Fresh peptides were added plate was mounted at the microscope chamber maintaining the temperature of 37° C. Images were acquired in NIKON Confocal Microscope for 5 minutes interval. Time lapse was set for 16 hours and images were compiled to make the video movie of the cell migration.

[5] = biological target: T1, SMAR1; test: SMAR1 stabilization/induction in HCT116 cells (western blot); type: cell-based; conditions: peptide treatment 48 hours
[6] = tested on: MDA-MB231 cells; test: Annexin V staining by flow cytometry (FACS); type: cell-based, Human; conditions: after peptide treatment
[7] = biological target: T1, SMAR1; test: SMAR1 stabilization across a variety of cancer cell lines (MCF7, SW620, NCI-H522, HCT116p53-/-, MDA-MB231); type: cell-based; conditions: different concentrations
[8] = tested on: HCT116 cells; test: Colony formation assay; type: cell-based
Procedure: 200 HCT116 cells seeded in 35 mm petri dishes and cultured for 24 hours. 10 μg of AT-01D added fresh every two days up to day 12th. Cell were washed with 1× Phosphate Buffer Saline and then fixed using 3% Para-formaldehyde for 10 minutes. Cells were washed and stained with Crystal violet for 30 minutes. After washing with PBS plates were kept inverted and air dried. Colonies were counted using inverted bright field microscope (Nikon). A group of cells were identified to be a colony that consists of more than 50 cells.

[9] = tested on: HT29 cells (adenocarcinoma); test: HT29 xenograft in SCID mice; type: in vivo; conditions: 50 mg/kg daily, 21 days of treatment
Procedure: (§1) SCID mice were injected subcutaneously with either 1 million HCT116 cells (carcinoma) or HT29 cells (adenocarcinoma) both of which are colon cancer cells. After 2 weeks tumors developed could be seen and the process of injecting AT-01C peptide was initiated. For HCT116 xenograft mice model AT-01C peptide of 25 mg/kg body weight of mice was injected intra-peritoneally. In case of HT29 xenograft mice model AT-01C peptide of 50 mg/kg body weight of mice was injected intra-peritoneally. Stock concentration of the AT-01C was 10 mg/ml. Both the mice group were injected with AT-01C peptide for 21 days daily just 5 mm away from the tumors. The daily injection was performed by injecting AT-01C surrounding the tumors being developed. After 21 days of injection tumors excised and their weight and volume was measured.
(§2) Tumors raised in SCID mice by subcutaneously injecting either 1 million HCT116 cells or HT29 cells (Xenograft model). After tumors developed and were visible to eyes AT-01C peptide treatment was started. For tumors raised using HCT116 colon cancer cells AT-01C of 25 mg/kg body weight of mice was injected intra-peritoneally. AT-01C peptide of 50 mg/kg body weight was injected intra-peritoneally as treatment for tumors raised with HT29 cells. AT-01C was injected daily surrounding the tumor 5 mm away from it. After 21 days of peptide injection, mice were sacrificed and tumors excised. […]

[10] = tested on: HCT116 cells (carcinoma); test: HCT116 xenograft in SCID mice; type: in vivo; conditions: 25 mg/kg daily, 21 days of treatment
Procedure: as §1, §2

[11] = biological target: T2, Scaffold Matrix Attachment Region Binding Protein 1 (SMAR1), full length (UniProt Q8N9N5 1-519); test: ITC, 25 C
T2 construct: This molecule also stands for endogenous SMAR1 of HCT116 cells in the functional rows
T2 sequence: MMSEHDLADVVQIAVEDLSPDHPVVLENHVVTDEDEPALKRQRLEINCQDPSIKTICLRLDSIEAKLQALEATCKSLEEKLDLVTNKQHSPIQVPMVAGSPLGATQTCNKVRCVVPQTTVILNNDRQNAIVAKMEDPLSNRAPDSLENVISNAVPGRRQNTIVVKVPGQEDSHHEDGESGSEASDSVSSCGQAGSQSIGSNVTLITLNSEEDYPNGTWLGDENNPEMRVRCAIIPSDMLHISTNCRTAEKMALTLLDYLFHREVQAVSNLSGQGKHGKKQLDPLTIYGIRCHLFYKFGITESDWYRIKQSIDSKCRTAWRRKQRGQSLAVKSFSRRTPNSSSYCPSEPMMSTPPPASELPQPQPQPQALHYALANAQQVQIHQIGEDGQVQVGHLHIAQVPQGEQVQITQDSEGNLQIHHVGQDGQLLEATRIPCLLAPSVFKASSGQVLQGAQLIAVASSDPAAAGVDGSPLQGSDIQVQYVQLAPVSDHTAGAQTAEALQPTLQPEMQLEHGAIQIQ

NAIRGSVTPAVSQFN (The sequence is developed from MPT63 of M. tuberculosis) [AT-01D, 15 amino acid peptide derived from AT01]
interaction with SMAR1 (ITC) [1]: positive results
transcriptional regulation of SMAR1 (PCR) [2]: failed to control the transcriptional regulation of SMAR1
induction of SMAR1 [3]: induction of SMAR1 was observed
cell migration [4]: mitigation of anticipated cell migration; also recorded: attenuate migration
SMAR1 stabilization / induction [5]: heightened effectiveness; also recorded: superior induction of SMAR1; also recorded: stabilized SMAR1 the most; also recorded: significantly induce expression of SMAR1
cell death (Annexin V) [6]: no signs of cell death
SMAR1 stabilization [7]: heightened effectiveness
colony formation / rate of cell proliferation ([8]; HCT116, 10 μg, 12 days, vs DMSO control): delayed or decreased
apoptotic cells in colony formation culture ([8]; HCT116, till the 12th day): No apoptotic cells or group of cells observed

GQVWEATATVNAIRGSVTPAVSQFNARTAD (The sequence is developed from MPT63 of M. tuberculosis) [AT-01, 30 amino acid peptide synthesized from MPT-63 of M. tuberculosis]
interaction with SMAR1 (ITC) [1]: failed to interact with SMAR1
SMAR1 stabilization / induction [5]: very less or no induction of SMAR1

ATATVNAIRGSVTPAVSQFN [AT-01C]
survival of mice [9]: All the mice survived
survival of mice [10]: All the mice survived

B1: AT-01 (peptide)
peptide: GQVWEATATVNAIRGSVTPAVSQFNARTAD
notes: also called parent 30 amino acid peptide
binding result [11]: no binding
